Legend:
4T1 tumor-bearing mice [1] = experiment: 4T1 breast cancer model, UNO/Anti-PD-1 Single Dose Study; format: in vivo, mouse; conditions: single-dose of UNO alone 50,000 ppm 10 min (FIG. 12A)
Protocol: Preparation of 4T1 cells: Cancer cell suspension, in Hanks' Balanced Salt Solution (HBSS) (Biological Industries, Israel), at a concentration of 5.0×10^6 cells/ml was freshly prepared on the day of the cancer model induction. Cells were grown to a 70-80% confluency and harvested using trypsin. The cells were centrifuged at 1,200 revolutions per minute (rpm)—241 G for 8 minutes, then the pellet was re-suspended in 1 ml of HBSS. The cells were counted using an automated cell counter and a suspension with a concentration of 5.0×10^6 cells/ml was prepared. Cell viability must be above 90% before cell inoculation to the mice, otherwise new cells will need to be prepared. […]
UNO and N2 treatment—On the day of treatment, mice were anesthetized by an intraperitoneal (i.p.) injection of 100 mg/kg of ketamine and 10 mg/kg of xylazine hydrochloride solution. […] After treatment, all mice were warmed and closely monitored until complete recovery was observed. […]
Anti-mPD-1 dosing started one day after UNO treatment. […] The primary tumor volume was assessed using a digital caliper using a standard formula. In addition, mice survival was evaluated. Mice were routinely weighed and monitored for health conditions using mouse distress scoring. Mice reaching a tumor volume of ≥1500 mm3 and/or a score of 12 were humanely euthanized, and the time of death was recorded.

4T1 tumor-bearing mice [2] = experiment: 4T1 breast cancer model, UNO/Anti-PD-1 Repeated Dose Study; format: in vivo, mouse
Protocol: Preparation of 4T1 cells: Cancer cell suspension, in Hanks' Balanced Salt Solution (HBSS) (Biological Industries, Israel), at a concentration of 5.0×10^6 cells/ml was freshly prepared on the day of the cancer model induction. Cells were grown to a 70-80% confluency and harvested using trypsin. The cells were centrifuged at 1,200 revolutions per minute (rpm)—241 G for 8 minutes, then the pellet was re-suspended in 1 ml of HBSS. The cells were counted using an automated cell counter and a suspension with a concentration of 5.0×10^6 cells/ml was prepared. Cell viability must be above 90% before cell inoculation to the mice, otherwise new cells will need to be prepared. At the point of inoculation, cells will be at passage 8 at most. The cell suspension was then aspirated into a 1 ml syringe with a 27 G needle, for subcutaneous (s.c.) injection. All injection volume was used and was not re-introduced into the stock solution.
Inoculation of 4T1 cancer cells to mice—Cancer cell suspension at a concentration of 5.0×10^6 cells/ml was inoculated to the right flank of animals at a volume of 100 μl per mouse. Female Balb/c mice were inoculated with 100 μl of 5.0×10^6 4T1 cells/ml. Administration was performed as soon as possible following cell preparation and after manual shaking prior to withdrawal of cell suspension. Injections were performed using a 1 ml syringe and a 27 G needle where withdrawal is done without the needle.
UNO and N2 treatment—On the day of treatment, mice were anesthetized by an intraperitoneal (i.p.) injection of 100 mg/kg of ketamine and 10 mg/kg of xylazine hydrochloride solution. Tumor-bearing mice were treated with either N2 or UNO at 50,000 ppm or 100,000 ppm. UNO at 50,000 ppm was administered intratumorally by a 23 G needle for 10 minutes, at 0.2 LPM and 2 bar exit pressure. UNO at 100,000 ppm was administered intratumorally by a 23 G needle for 2 minutes, at 0.2 LPM and 2 bar exit pressure. After treatment, all mice were warmed and closely monitored until complete recovery was observed.
Injection of anti-PD-1—Anti-PD-1 was administered 5 times intraperitoneally (i.p.) at a dose of 10 mg/kg, i.p., using a 1 ml syringe with a 27 G needle. The injection was administered to approximately the same location each time.
UNO/Anti-PD-1 Repeated Dose Study—Balb/c mice (96) were inoculated with mouse breast cancer carcinoma (4T1) cells injected subcutaneously (s.c.) to the right flank. When the average tumor volume reached 50-150 mm^3, mice assigned to gas treatment groups were treated with 5% UNO (50,000 ppm), stabilized in N2, injected intratumorally (i.t.) for 10 minutes at a flow rate of 0.2 liters per minute (LPM) or with N2 injected intratumorally (i.t.) for 10 minutes at a flow rate of 0.2 LPM as a control. The mice were administered the gas treatment, e.g., UNO or N2, twice, on day 9 post-tumor cells inoculation and, 5 days later, on day 14 post-tumor inoculation. Mice assigned to the combination treatment group (i.e., gas+anti-mPD-1) were administered anti-mPD-1 injections starting from the day of first gas treatment and administered every three days thereafter, with a final dose of anti-mPD-1 injected 12 days after the first gas treatment.
Primary tumor volume progression was monitored twice a week by measuring the tumor using a digital caliper calculated as: […]
where Diameter 1 is length, Diameter 2 is width, and Diameter 3 is height.
Mice receiving two UNO treatments were divided into two groups: in the first group, the primary tumors were surgically removed 15 days after the first UNO treatment, while, in the second group, the tumors were not resected. Mice survival was evaluated. Mice that reached a tumor volume of ≥1500 mm^3 and/or a score of 12 were humanely euthanized, and the time of death was recorded. Metastases development was evaluated postmortem.

[3] = with primary tumor resection (FIG. 13B), Cox model

[N]=O [UNO, nitric oxide]
Primary tumors smaller compared to anti-mPD-1 alone (4T1 tumor-bearing mice [1]): 13.2%
Primary tumor size vs untreated or only anti-mPD-1 (4T1 tumor-bearing mice [2]; repeated UNO dosing 50,000 ppm 10 min twice, 14 days after first UNO treatment (FIG. 12B)): significantly smaller
Survival (Kaplan-Meier) vs anti-mPD-1 alone, untreated or N2 controls (4T1 tumor-bearing mice [2]; repeated doses of UNO): tendency toward prolonged survival
Tumors smaller compared to anti-mPD-1 alone group (4T1 tumor-bearing mice [2]; repeated doses of UNO without anti-mPD-1, 14 days after first UNO treatment): 21.0%
Survival hazard ratio vs anti-mPD-1 (4T1 tumor-bearing mice [2]; [3]): 1.58
Survival hazard ratio vs untreated (4T1 tumor-bearing mice [2]; [3]): 0.69
Survival hazard ratio vs untreated (4T1 tumor-bearing mice [2]; without resection of primary tumor (FIG. 13A), Cox model): 0.63

Source: patent US20250339462A1, “CANCER TREATMENT USING ULTRA-HIGH CONCENTRATION GASEOUS NITRIC OXIDE AND A CHECKPOINT INHIBITOR” (Beyond Air, Inc., priority 2022, published 2025)
